The results in this text go back to Sander's compilation of Henry's law constants (doi:10.1016/j.hazl.2022.100070).

A short description of the data set: Henry solubility constant Hcp at 298.15 K (mol/(m3 Pa)). The conditions noted are these: reference: Abusallout et al. (2022).

Molecules are shown by their SMILES.

For `C=CC(=O)OCCC(F)(F)C(F)(F)C(F)(F)C(F)(F)C(F)(F)C(F)(F)C(F)(F)C(F)(F)F`, the “Henry solubility constant Hcp” value is 0.0013.

Turning to `FC(F)(F)C(F)(F)C(F)(F)C(F)(F)C(F)(F)C(F)(F)CCI` [1,1,1,2,2,3,3,4,4,5,5,6,6-tridecafluoro-8-iodooctane], the “Henry solubility constant Hcp” value is 0.0013.

Regarding `OCCC(F)(F)C(F)(F)C(F)(F)C(F)(F)C(F)(F)C(F)(F)C(F)(F)C(F)(F)C(F)(F)C(F)(F)F` [1,1,2,2-tetrahydroperfluoro dodecanol], the “Henry solubility constant Hcp” value was found to be 0.00014.

For the molecule `OCCC(F)(F)C(F)(F)C(F)(F)C(F)(F)C(F)(F)C(F)(F)F` [1H,1H,2H,2H-perfluoro-1-octanol], the “Henry solubility constant Hcp” value amounted to 0.00033.

Regarding `OCCC(F)(F)C(F)(F)C(F)(F)C(F)(F)C(F)(F)C(F)(F)C(F)(F)C(F)(F)F` [1H,1H,2H,2H-perfluorodecan-1-ol], the “Henry solubility constant Hcp” value worked out at 0.0002.

As to `O=S(=O)(O)CCC(F)(F)C(F)(F)C(F)(F)C(F)(F)C(F)(F)C(F)(F)C(F)(F)C(F)(F)F` [1H,1H,2H,2H-perfluorodecane sulfonic acid], the “Henry solubility constant Hcp” value turned out to be 0.0022.

Consider `OCCC(F)(F)C(F)(F)C(F)(F)C(F)(F)F` [1H,1H,2H,2H-perfluorohexan-1-ol], for which the “Henry solubility constant Hcp” value was found to be 0.0013.

Take `O=S(=O)(O)CCC(F)(F)C(F)(F)C(F)(F)C(F)(F)F` [1H,1H,2H,2H-perfluorohexane sulfonic acid]: the “Henry solubility constant Hcp” value stood at 0.0045.

Turning to `O=S(=O)(O)CCC(F)(F)C(F)(F)C(F)(F)C(F)(F)C(F)(F)C(F)(F)F` [1H,1H,2H,2H-perfluorooctane sulfonic acid], the “Henry solubility constant Hcp” value was 0.0021.

For `FC(F)(F)C(F)(F)C(F)(F)C(F)(F)C(F)(F)C(F)(F)/C=C/I` [1H,2H-perfluoro-1-iodooct-1-ene], the “Henry solubility constant Hcp” value amounted to 0.00084.

Consider `O=C(O)CC(F)(F)C(F)(F)C(F)(F)C(F)(F)C(F)(F)C(F)(F)C(F)(F)C(F)(F)F` [2H,2H-perfluorodecanoic acid], for which the “Henry solubility constant Hcp” value was 0.00058.

`C=CC(F)(F)C(F)(F)C(F)(F)C(F)(F)C(F)(F)C(F)(F)F` [(perfluorohexyl)ethene]: the “Henry solubility constant Hcp” value is 0.00011.

With `CCNS(=O)(=O)C(F)(F)C(F)(F)C(F)(F)C(F)(F)C(F)(F)C(F)(F)C(F)(F)C(F)(F)F` [N-ethylperfluorooctanesulfonamide], the “Henry solubility constant Hcp” value came to 0.00094.

Take `CNS(=O)(=O)C(F)(F)C(F)(F)C(F)(F)C(F)(F)C(F)(F)C(F)(F)C(F)(F)C(F)(F)F` [N-methylperfluorooctanesulphonamide]: the “Henry solubility constant Hcp” value came to 0.00044.

In the case of `FC(F)(F)C(F)(F)C(F)(F)C(F)(F)C(F)(F)C(F)(F)I` [perfluorohexyl iodide], the “Henry solubility constant Hcp” value turned out to be 0.00046.
